Key:
ARPE19 cells = assay: MTT viability assay; format: cell-based, human; conditions: 24 h; for cell viability reduced to: ARPE19, 50 µM (highest concentration), DMSO as reference
Protocol: (§1) Protein kinase CK2 is essential for the survival of cells. Therefore, we tested the impact of the CK2 inhibitors on the viability of cells in both lines. The inhibitors were applied in increasing concentrations up to 50 µM to growing cell cultures and the viability was analyzed by a MTT assay after 24 h of treatment. The effect of the compounds on the growth of the normal ARPE19 cells was rather moderate (Figure 5A). 5 had no impact on ARPE19 cell viability. 4b reduced the viability to 70% in its highest concentration and 4a exerted the strongest influence by reducing the ratio of viable cells to 40% when applying a 50 µM dose. In contrast LNCaP cells were strongly impaired by the treatment with the dibenzofurans (Figure 5B): Using 10 µM of the different inhibitors, we only observed an effect with 4b. However, increasing the concentration to 20, 25 and 50 µM exerted a drastic impact on the viability of LNCaP cells. With 50 µM 4b a viability rate of final 5% was obtained, whereas 4a and 5 reduced the viability to 30 to 35%. Thus, the inhibitors in particular affected the viability of LNCaP carcinoma cells, but not of normal retinal pigment epithelium cells. […] Even after 48 h of growth under CK2 inhibition ARPE19 cells appeared rather unaffected by the treatment. […]
(§2) Figure 5 Effects of dibenzofuran inhibitors on cell viability. […] Cell viability was determined using the MTT assay after 24 h of incubation. […]
(§3) ARPE19 cells (ATCC Number: CRL-2302), retinal pigment epithelia (RPE) cells, were maintained at 37 °C and 5% CO2 in Dulbecco’s modified Eagles medium (DMEM) supplemented with 2 mM L-glutamine, 1 mM gentamicin and 10% fetal calf serum (FCS) at 37 °C in an atmosphere enriched with 5% CO2. […] For the evaluation of cell morphology ARPE19 and LNCaP cells were analysed with bright field microscopy using a Axiovert microscope from Zeiss (Jena, Germany).
(§4) Cell proliferation and viability was determined using a colorimetric MTT-based assay (MTT: 3-[4,5-dimethylthiazol-2-yl]-2,5-diphenyl tetrazolium bromide, Sigma-Aldrich, Deisenhofen, Germany) as described in [72]. […]

LNCaP cells = assay: MTT viability assay; format: cell-based; conditions: Homo sapiens, 24 h, DMSO as reference, read-out: cell viability
Protocol: as §1, §2, §3, §4

[1] = test system: caspases 3 and 7 in LNCaP cells; assay: Caspase-Glo 3/7 assay; format: cell-based, human; conditions: for caspase 3/7 activity, maximum obtained: 25 or 50 µM, 24 or 48 h; for caspase 3/7 activity: 50 µM, 48 h
From the text: Reducing the activity of CK2 by the inhibitors is supposed to overcome the antiapoptotic effect of the enzyme and cells are induced to undergo apoptosis. […] In consequence, we analyzed in the next experiments whether the cells were killed by apoptosis. Hallmark of apoptosis is the activation of the key effector caspases 3 and 7 which ends in the cleavage of poly (ADP ribose) polymerase PARP1. The full-length PARP1 is cleaved by the caspases to an 89 and a 24 kDa fragment. These events of late apoptotic signaling were analyzed in ARPE19 and LNCaP cells grown in the presence and in the absence of dibenzofurans. Inhibitor concentrations of 25 and 50 µM were used and were applied for 24 and 48 h. In cell lysates of LNCaP and ARPE19 cells the activity of caspases 3 and 7 was determined subsequently by a luminescence based assay (Figure 6A).
(§5) (A) ARPE19 or LNCaP cells were treated with DMSO as control (0 μM) or with 25 or 50 μM 4b, 4a or 5 for 24 or 48 h. Activity of caspases 3 and 7 was determined using the luminescent Caspase-Glo® 3/7 assay according to the technical bulletin of the manufacturer. Median relative light units (RLU) + standard deviation from at least three independent experiments are shown in the bar graph. (B) Cells were treated as described before. 75 μg cell extract was separated in a 10% SDS polyacrylamide gel and analyzed in a Western blot analysis with a rabbit polyclonal antibody against PARP1. + is a positive control for PARP cleavage.
The activity of the apoptotic key effector caspases 3 and 7 in cell extracts was determined using the Caspase-Glo 3/7 assay according to the protocol of the manufacturer (Promega, Mannheim, Germany).

PARP1 in LNCaP cells = assay: PARP1 cleavage, Western blot; format: cell-based, human
Protocol: as §5, with “Figure 6 Induction of apoptosis in prostate cancer cell line LNCaP and non-neoplastic retinal pigment epithelial cell line ARPE19. (A)” for “(A)”
In addition to the luminescence assay, Western blot analysis was performed to check PARP1-cleavage (Figure 6B). Therefore specific antibodies for the detection of the full-length PARP1 (113 kDa) and the larger cleavage fragment of PARP1 (89 kDa) were used. In ARPE19 cells no cleavage product of PARP1 was detectable.
Proteins were separated by SDS polyacrylamide gel electrophoresis and blotted onto a PVDF membrane. After blocking (1 h with PBS-Tween20 with 5% dry milk) the membrane was incubated with appropriate dilutions of primary antibodies in PBS-Tween20 with 1% dry milk for another hour at room temperature or at 4 °C overnight. Then the membrane was washed twice for 10 min with PBS-Tween20 with 1% dry milk. Incubation with the peroxidase-coupled secondary antibody (anti-rabbit 1:30,000, anti-mouse 1:10,000) followed for 1 h. The membrane was washed again twice for 10 min with PBS-Tween20. Signals were developed and visualized by the Lumilight system of Roche Diagnostics GmbH. For the detection of the apoptose marker protein PARP we used a polyclonal PARP antibody (Cell Signaling Technology, Frankfurt, Germany), a GAPDH specific antibody (Santa Cruz Biotechnologies, Dallas, TX, USA) was used for loading control. […]

Row | Structure (SMILES) | cell viability reduced to (ARPE19 cells) [%] | viability at 50 µM (LNCaP cells) [%] | caspase 3/7 activity, maximum obtained [1] | PARP1 cleavage (PARP1 in LNCaP cells; 25 or 50 µM, 24 or 48 h) | caspase 3/7 activity [1] | PARP1 cleavage (PARP1 in LNCaP cells; 50 µM) | impact on cell viability (ARPE19 cells; ARPE19, up to 50 µM)
1 | COc1ccc(N/C=C2\C(=O)CCc3c2oc2cc(Cl)c(O)c(Cl)c32)cc1 [4a, 7,9-dichloro-1,2-dihydro-8-hydroxy-4-[(4-methoxyphenylamino)methylene]dibenzo[b,d]furan-3(2H)-one] | 40 | 30 to 35 | 17,000 RLU | did not result in cleavage of PARP1 |  |  | 
2 | Cc1ccc(NC=C2C(=O)CCc3c2oc2c(Cl)c(Cl)c(O)cc32)cc1 [4b, 6,7-dichloro-1,4-dihydro-8-hydroxy-4-[(4-methylphenylamino)methylene]dibenzo[b,d]furan-3(2H)-one] | 70 | 5 |  |  | > 50,000 RLU | cleavage of PARP1 | 
3 | COc1ccc(/N=C/c2c(O)ccc3c2oc2cc(Cl)c(O)c(Cl)c23)cc1 [compound 5, (E)-1,3-dichloro-6-[(4-methoxyphenylimino)methyl]dibenzo[b,d]furan-2,7-diol] |  | 30 to 35 | 55,000 RLU |  | > 50,000 RLU | cleavage of PARP1 | no impact

From publication PMC5874719, “A π-Halogen Bond of Dibenzofuranones with the Gatekeeper Phe113 in Human Protein Kinase CK2 Leads to Potent Tight Binding Inhibitors” (Pharmaceuticals, 2018)
